Experimental data from patent publication US12083124B2 (Incyte Corporation, priority 2019, dated 2024).
Like-named read-outs stand apart in the source and are kept apart here.

Tests used:
[1] = molecular target: wild-type un-phosphorylated FGFR3 (Homo sapiens, UniProt P22607); experiment: FGFR Enzymatic Assay (FRET peptide phosphorylation), FGFR3
Procedure: (§1) The inhibitor potency of the exemplified compounds was determined in an enzyme discontinuous assay that measures peptide phosphorylation using FRET measurements to detect product formation. Inhibitors were serially diluted in DMSO and a volume of 0.2 μL was transferred to the wells of a 384-well plate. […] Appropriate controls (enzyme blank and enzyme with no inhibitor) were included on the plate. […] The 10 μL/well reaction concentration of the peptide substrate was 500 nM whereas the ATP concentration was maintained near or below the ATP Km. The ATP Km values were pre-determined in a separate series of experiments. The reaction plate was incubated at 25° C. for 1 hr and the reactions were ended with the addition of 5 μL/well of quench solution (50 mM Tris, 150 mM NaCl, 0.5 mg/mL BSA, pH 7.8; 45 mM EDTA, 600 nM staurosporin, with Perkin Elmer Lance Reagents at 3.75 nM Eu-antibody PY20 and 180 nM APC-Streptavidin). The plate was allowed to equilibrate for ˜10 minutes at ambient temperature before scanning on a PheraStar plate reader (BMG Labtech) instrument.
(§2) Either GraphPad prism or XLfit was used to analyze the data. The IC50 values were derived by fitting the data to a four parameter logistic equation producing a sigmoidal dose-response curve with a variable Hill coefficient. Prism equation: Y=Bottom+(Top-Bottom)/(1+10^((Log IC50-X)*Hill slope)); XLfit equation: Y=(A+((B−A)/(1+((X/C)^D)))) where X is the logarithm of inhibitor concentration and Y is the response.
(§3) GraphPad prism3 was used to analyze the data. The IC50 values were derived by fitting the data to the equation for a sigmoidal dose-response with a variable slope. Y=Bottom+(Top-Bottom)/(1+10^((Log IC50-X)*Hill Slope)) where X is the logarithm of concentration and Y is the response.

[2] = molecular target: wild-type un-phosphorylated FGFR1 (Homo sapiens, UniProt P11362); experiment: FGFR Enzymatic Assay (FRET peptide phosphorylation), FGFR1; details: pre-incubated for 4 hours
Sequence of wild-type un-phosphorylated FGFR1 (P11362 22-822): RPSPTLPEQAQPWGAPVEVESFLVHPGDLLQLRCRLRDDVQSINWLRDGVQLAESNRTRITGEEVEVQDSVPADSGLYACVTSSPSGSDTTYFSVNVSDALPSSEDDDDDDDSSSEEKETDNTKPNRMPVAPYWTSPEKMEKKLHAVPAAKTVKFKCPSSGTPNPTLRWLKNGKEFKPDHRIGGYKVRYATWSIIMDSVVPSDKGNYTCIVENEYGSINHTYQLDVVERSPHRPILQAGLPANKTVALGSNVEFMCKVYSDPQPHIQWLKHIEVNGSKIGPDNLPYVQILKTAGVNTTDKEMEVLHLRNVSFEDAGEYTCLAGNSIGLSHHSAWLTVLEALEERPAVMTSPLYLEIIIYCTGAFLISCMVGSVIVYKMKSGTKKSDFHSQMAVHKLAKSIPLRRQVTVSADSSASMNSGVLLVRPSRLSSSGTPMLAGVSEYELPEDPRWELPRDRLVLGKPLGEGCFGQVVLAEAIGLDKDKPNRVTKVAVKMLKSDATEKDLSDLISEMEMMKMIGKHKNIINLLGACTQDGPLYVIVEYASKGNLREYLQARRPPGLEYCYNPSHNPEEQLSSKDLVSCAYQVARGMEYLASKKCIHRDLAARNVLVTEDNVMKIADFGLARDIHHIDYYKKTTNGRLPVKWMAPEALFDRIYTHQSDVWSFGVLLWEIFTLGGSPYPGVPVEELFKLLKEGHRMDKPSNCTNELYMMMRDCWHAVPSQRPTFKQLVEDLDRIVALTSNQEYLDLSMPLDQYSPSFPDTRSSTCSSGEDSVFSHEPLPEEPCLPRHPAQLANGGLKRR
Procedure: as §1, §2, §3
(§4) The data in Table 1 was measured in wild-type un-phosphorylated FGFR1, FGFR2, FGFR3, and FGFR4 proteins.

[3] = molecular target: wild-type un-phosphorylated FGFR4 (Homo sapiens, UniProt P22455); experiment: FGFR Enzymatic Assay (FRET peptide phosphorylation), FGFR4
Sequence of wild-type un-phosphorylated FGFR4 (P22455 22-802): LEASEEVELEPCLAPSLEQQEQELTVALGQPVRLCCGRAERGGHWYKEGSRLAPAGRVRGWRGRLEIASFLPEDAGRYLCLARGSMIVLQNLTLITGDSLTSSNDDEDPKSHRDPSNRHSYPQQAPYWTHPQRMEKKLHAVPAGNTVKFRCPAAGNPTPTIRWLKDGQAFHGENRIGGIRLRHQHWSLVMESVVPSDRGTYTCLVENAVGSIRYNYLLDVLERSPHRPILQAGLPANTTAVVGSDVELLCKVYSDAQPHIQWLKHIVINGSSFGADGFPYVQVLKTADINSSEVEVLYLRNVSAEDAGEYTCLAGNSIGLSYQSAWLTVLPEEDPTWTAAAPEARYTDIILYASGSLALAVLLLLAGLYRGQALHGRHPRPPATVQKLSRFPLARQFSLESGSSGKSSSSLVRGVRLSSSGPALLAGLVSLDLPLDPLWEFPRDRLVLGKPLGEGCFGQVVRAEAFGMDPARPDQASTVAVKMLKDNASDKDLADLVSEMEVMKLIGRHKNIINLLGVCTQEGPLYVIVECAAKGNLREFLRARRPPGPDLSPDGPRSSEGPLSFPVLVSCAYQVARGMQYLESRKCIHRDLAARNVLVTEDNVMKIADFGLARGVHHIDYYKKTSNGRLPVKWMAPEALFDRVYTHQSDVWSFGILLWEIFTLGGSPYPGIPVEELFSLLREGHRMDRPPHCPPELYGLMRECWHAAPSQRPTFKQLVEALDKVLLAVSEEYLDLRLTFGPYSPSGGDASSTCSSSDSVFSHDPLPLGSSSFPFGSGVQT
Procedure: as §1, §2, §3, §4

[4] = molecular target: wild-type un-phosphorylated FGFR2 (Homo sapiens, UniProt P21802); experiment: FGFR Enzymatic Assay (FRET peptide phosphorylation), FGFR2
Sequence of wild-type un-phosphorylated FGFR2 (P21802 22-821): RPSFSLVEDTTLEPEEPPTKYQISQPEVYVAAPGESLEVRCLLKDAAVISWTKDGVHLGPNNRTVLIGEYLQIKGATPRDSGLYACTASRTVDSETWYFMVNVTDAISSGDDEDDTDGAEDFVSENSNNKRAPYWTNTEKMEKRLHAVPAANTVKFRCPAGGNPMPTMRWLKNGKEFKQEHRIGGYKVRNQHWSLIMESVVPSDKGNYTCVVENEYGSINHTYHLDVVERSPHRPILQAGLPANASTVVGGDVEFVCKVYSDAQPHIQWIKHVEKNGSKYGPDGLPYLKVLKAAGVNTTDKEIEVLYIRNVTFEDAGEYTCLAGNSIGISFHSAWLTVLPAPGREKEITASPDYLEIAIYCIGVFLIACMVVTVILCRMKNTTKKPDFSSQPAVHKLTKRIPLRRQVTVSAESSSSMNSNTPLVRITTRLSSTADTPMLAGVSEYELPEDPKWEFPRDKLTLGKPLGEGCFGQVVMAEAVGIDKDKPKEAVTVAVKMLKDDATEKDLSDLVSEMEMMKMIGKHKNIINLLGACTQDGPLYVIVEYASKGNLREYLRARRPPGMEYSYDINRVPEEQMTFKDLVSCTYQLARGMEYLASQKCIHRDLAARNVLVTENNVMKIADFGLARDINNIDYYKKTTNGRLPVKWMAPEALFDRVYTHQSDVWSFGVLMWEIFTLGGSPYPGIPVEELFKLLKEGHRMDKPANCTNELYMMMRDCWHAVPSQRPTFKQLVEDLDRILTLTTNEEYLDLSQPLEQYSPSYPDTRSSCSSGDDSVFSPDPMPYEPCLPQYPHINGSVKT

[5] = read-out: FGFR1, wild-type un-phosphorylated FGFR1
[6] = read-out: FGFR4, wild-type un-phosphorylated FGFR4, pre-incubated for 4 hours
[7] = FGFR1, wild-type un-phosphorylated FGFR1
[8] = read-out: FGFR2, wild-type un-phosphorylated FGFR2, pre-incubated for 4 hours

Sequence of wild-type un-phosphorylated FGFR3 (P22607 23-806): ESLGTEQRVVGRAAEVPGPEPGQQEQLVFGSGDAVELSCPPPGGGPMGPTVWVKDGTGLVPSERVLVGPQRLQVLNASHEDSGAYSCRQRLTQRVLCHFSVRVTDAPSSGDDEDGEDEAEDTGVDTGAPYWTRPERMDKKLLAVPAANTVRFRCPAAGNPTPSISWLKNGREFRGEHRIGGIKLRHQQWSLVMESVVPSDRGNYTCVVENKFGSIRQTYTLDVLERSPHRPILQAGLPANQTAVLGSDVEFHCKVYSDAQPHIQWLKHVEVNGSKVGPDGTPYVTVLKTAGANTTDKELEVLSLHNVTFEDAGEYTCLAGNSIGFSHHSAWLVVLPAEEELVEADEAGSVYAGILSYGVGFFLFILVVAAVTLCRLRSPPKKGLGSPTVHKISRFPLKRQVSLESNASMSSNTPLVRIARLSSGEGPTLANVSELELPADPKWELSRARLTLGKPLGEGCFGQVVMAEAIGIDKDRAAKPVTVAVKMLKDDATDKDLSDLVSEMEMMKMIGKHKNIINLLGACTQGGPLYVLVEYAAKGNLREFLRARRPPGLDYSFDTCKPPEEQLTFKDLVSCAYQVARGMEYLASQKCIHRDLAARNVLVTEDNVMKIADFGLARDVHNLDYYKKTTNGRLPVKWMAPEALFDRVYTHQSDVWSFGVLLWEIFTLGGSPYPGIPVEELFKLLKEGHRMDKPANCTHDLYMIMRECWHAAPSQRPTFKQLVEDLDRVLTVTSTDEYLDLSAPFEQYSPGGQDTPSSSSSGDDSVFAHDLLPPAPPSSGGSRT

IC50 [1] [nM]	IC50 [2, 5] [nM]	IC50 [3, 6] [nM]	IC50 [4] [nM]	IC50 [2, 7] [nM]	IC50 [3] [nM]	IC50 [4, 8] [nM]	SMILES
< 6	6 to 40	6 to 40	< 6				COc1cc2[nH]nc(-c3ccc(N4CCN(C)CC4)nc3)c2nc1-c1cccc2c1CCC2C#N (single isomer, unassigned) [Example 186, 4-(6-Methoxy-3-(6-(4-methylpiperazin-1-yl)pyridin-3-yl)-1H-pyrazolo[4,3-b]pyridin-5-yl)-2,3-dihydro-1H-indene-1-carbonitrile]
< 6				> 100	> 100	6 to 40	COc1cc2[nH]nc(-c3cnn(C)c3)c2nc1-c1cccc(C)c1C [Example 1, 5-(2,3-Dimethylphenyl)-6-methoxy-3-(1-methyl-1H-pyrazol-4-yl)-1H-pyrazolo[4,3-b]pyridine]
< 6			< 6	40 to 100	40 to 100		COc1cc2[nH]nc(-c3cnn(C)c3)c2nc1-c1cccc2c1CCC2 [Example 2, 5-(2,3-Dihydro-1H-inden-4-yl)-6-methoxy-3-(1-methyl-1H-pyrazol-4-yl)-1H-pyrazolo[4,3-b]pyridine]
< 6				> 100	> 100	6 to 40	COc1cc2[nH]nc(-c3cnn(C)c3)c2nc1-c1cccc2c1OCC2 [Example 4, 5-(2,3-Dihydrobenzofuran-7-yl)-6-methoxy-3-(1-methyl-1H-pyrazol-4-yl)-1H-pyrazolo[4,3-b]pyridine]
< 6				> 100	> 100	6 to 40	COc1cc2[nH]nc(-c3cnn(C)c3)c2nc1-c1cccc(CC#N)c1C [Example 5, 2-(3-(6-Methoxy-3-(1-methyl-1H-pyrazol-4-yl)-1H-pyrazolo[4,3-b]pyridin-5-yl)-2-methylphenyl)acetonitrile]
< 6			< 6	40 to 100	> 100		COc1cc2[nH]nc(-c3cnn(C4CC(C#N)C4)c3)c2nc1-c1cccc2c1CCC2 (centres unmarked) [Example 16, 3-(4-(5-(2,3-Dihydro-1H-inden-4-yl)-6-methoxy-1H-pyrazolo[4,3-b]pyridin-3-yl)-1H-pyrazol-1-yl)cyclobutanecarbonitrile]
< 6			< 6	40 to 100	> 100		COc1cc2[nH]nc(-c3cnn(C4CN(C)C4)c3)c2nc1-c1cccc2c1CCC2 [Example 17, 5-(2,3-Dihydro-1H-inden-4-yl)-6-methoxy-3-(1-(1-methylazetidin-3-yl)-1H-pyrazol-4-yl)-1H-pyrazolo[4,3-b]pyridine]
< 6			< 6	40 to 100	> 100		CCN1CC(n2cc(-c3n[nH]c4cc(OC)c(-c5cccc6c5CCC6)nc34)cn2)C1 [Example 18, 5-(2,3-Dihydro-1H-inden-4-yl)-3-(1-(1-ethylazetidin-3-yl)-1H-pyrazol-4-yl)-6-methoxy-1H-pyrazolo[4,3-b]pyridine]
< 6			< 6	40 to 100	> 100		COc1cc2[nH]nc(-c3cnn(C4CCN(C(=O)N(C)C)CC4)c3)c2nc1-c1cccc2c1CCC2 [Example 19, 4-(4-(5-(2,3-Dihydro-1H-inden-4-yl)-6-methoxy-1H-pyrazolo[4,3-b]pyridin-3-yl)-1H-pyrazol-1-yl)-N,N-dimethylpiperidine-1-carboxamide]
< 6			< 6	40 to 100	> 100		COC(=O)N1CCC(n2cc(-c3n[nH]c4cc(OC)c(-c5cccc6c5CCC6)nc34)cn2)CC1 [Example 20, Methyl 4-(4-(5-(2,3-dihydro-1H-inden-4-yl)-6-methoxy-1H-pyrazolo[4,3-b]pyridin-3-yl)-1H-pyrazol-1-yl)piperidine-1-carboxylate]
< 6			< 6	40 to 100	40 to 100		COC(=O)N1CC(n2cc(-c3n[nH]c4cc(OC)c(-c5cccc6c5CCC6)nc34)cn2)C1 [Example 21, Methyl 3-(4-(5-(2,3-dihydro-1H-inden-4-yl)-6-methoxy-1H-pyrazolo[4,3-b]pyridin-3-yl)-1H-pyrazol-1-yl)azetidine-1-carboxylate]
< 6			< 6	40 to 100	40 to 100		COc1cc2[nH]nc(-c3cnn(C4CN(C(C)=O)C4)c3)c2nc1-c1cccc2c1CCC2 [Example 22, 1-(3-(4-(5-(2,3-Dihydro-1H-inden-4-yl)-6-methoxy-1H-pyrazolo[4,3-b]pyridin-3-yl)-1H-pyrazol-1-yl)azetidin-1-yl)ethan-1-one]
< 6			< 6	> 100	> 100		COc1cc2[nH]nc(-c3cnn(C4CN(S(C)(=O)=O)C4)c3)c2nc1-c1cccc2c1CCC2 [Example 23, 5-(2,3-Dihydro-1H-inden-4-yl)-6-methoxy-3-(1-(1-(methylsulfonyl)azetidin-3-yl)-1H-pyrazol-4-yl)-1H-pyrazolo[4,3-b]pyridine]
< 6	6 to 40	6 to 40	< 6				COc1cc2[nH]nc(-c3cnn(C4CN(C(=O)N(C)C)C4)c3)c2nc1-c1cccc2c1CCC2 [Example 24, 3-(4-(5-(2,3-Dihydro-1H-inden-4-yl)-6-methoxy-1H-pyrazolo[4,3-b]pyridin-3-yl)-1H-pyrazol-1-yl)-N,N-dimethylazetidine-1-carboxamide]
< 6	6 to 40		< 6		40 to 100		COc1cc2[nH]nc(-c3cnn(C4CN(C(=O)C5CC5)C4)c3)c2nc1-c1cccc2c1CCC2 [Example 25, Cyclopropyl(3-(4-(5-(2,3-dihydro-1H-inden-4-yl)-6-methoxy-1H-pyrazolo[4,3-b]pyridin-3-yl)-1H-pyrazol-1-yl)azetidin-1-yl)methanone]
< 6			< 6	40 to 100	> 100		COc1cc2[nH]nc(-c3cnn(CCN4CCOCC4)c3)c2nc1-c1cccc2c1CCC2 [Example 28, 4-(2-(4-(5-(2,3-Dihydro-1H-inden-4-yl)-6-methoxy-1H-pyrazolo[4,3-b]pyridin-3-yl)-1H-pyrazol-1-yl)ethyl)morpholine]
< 6			< 6	40 to 100	40 to 100		COc1cc2[nH]nc(-c3cnn(C4CC4)c3)c2nc1-c1cccc2c1CCC2 [Example 29, 3-(1-Cyclopropyl-1H-pyrazol-4-yl)-5-(2,3-dihydro-1H-inden-4-yl)-6-methoxy-1H-pyrazolo[4,3-b]pyridine]
< 6				> 100	40 to 100	6 to 40	COc1cc2[nH]nc(-c3cnn(CCC#N)c3)c2nc1-c1cccc2c1CCC2 [Example 30, 3-(4-(5-(2,3-Dihydro-1H-inden-4-yl)-6-methoxy-1H-pyrazolo[4,3-b]pyridin-3-yl)-1H-pyrazol-1-yl)propanenitrile]
< 6			< 6	40 to 100	40 to 100		COc1cc2[nH]nc(-c3cnn(CCO)c3)c2nc1-c1cccc2c1CCC2 [Example 31, 2-(4-(5-(2,3-Dihydro-1H-inden-4-yl)-6-methoxy-1H-pyrazolo[4,3-b]pyridin-3-yl)-1H-pyrazol-1-yl)ethan-1-ol]
< 6			< 6	40 to 100	> 100		COc1cc2[nH]nc(-c3cnn([C@H]4CC[C@H](O)CC4)c3)c2nc1-c1cccc2c1CCC2 [Example 33, (trans)-4-(4-(5-(2,3-Dihydro-1H-inden-4-yl)-6-methoxy-1H-pyrazolo[4,3-b]pyridin-3-yl)-1H-pyrazol-1-yl)cyclohexan-1-ol]
< 6			< 6	40 to 100	> 100		CNc1cc2[nH]nc(-c3cnn(C)c3)c2nc1-c1cccc(C)c1C [Example 34, 5-(2,3-Dimethylphenyl)-N-methyl-3-(1-methyl-1H-pyrazol-4-yl)-1H-pyrazolo[4,3-b]pyridin-6-amine]
< 6				40 to 100	> 100	6 to 40	Cn1cc(-c2n[nH]c3cc(CO)c(-c4cccc5c4CCC5)nc23)cn1 [Example 36, (5-(2,3-Dihydro-1H-inden-4-yl)-3-(1-methyl-1H-pyrazol-4-yl)-1H-pyrazolo[4,3-b]pyridin-6-yl)methanol]
< 6				> 100	> 100	6 to 40	Cc1cccc(-c2nc3c(-c4cnn(C)c4)n[nH]c3cc2CO)c1C [Example 38, (5-(2,3-Dimethylphenyl)-3-(1-methyl-1H-pyrazol-4-yl)-1H-pyrazolo[4,3-b]pyridin-6-yl)methanol]
< 6				> 100	> 100	6 to 40	Cc1cc2[nH]nc(-c3cnn(C)c3)c2nc1-c1cccc(C)c1C [Example 40, 5-(2,3-Dimethylphenyl)-6-methyl-3-(1-methyl-1H-pyrazol-4-yl)-1H-pyrazolo[4,3-b]pyridine]
< 6			< 6	40 to 100	40 to 100		COc1cc2[nH]nc(-c3ccc(N4CCN(C)CC4)nc3)c2nc1-c1cccc(C)c1C [Example 41, 5-(2,3-Dimethylphenyl)-6-methoxy-3-(6-(4-methylpiperazin-1-yl)pyridin-3-yl)-1H-pyrazolo[4,3-b]pyridine]
< 6			< 6	40 to 100	> 100		CCN1CCN(c2ccc(-c3n[nH]c4cc(OC)c(-c5cccc(C)c5C)nc34)cn2)CC1 [Example 42, 5-(2,3-Dimethylphenyl)-3-(6-(4-ethylpiperazin-1-yl)pyridin-3-yl)-6-methoxy-1H-pyrazolo[4,3-b]pyridine]
